Laboratory results taken from patent US6077843A, “Aqueous suspensions of 9-hydroxyrisperidone fatty acid esters” (Janssen Pharmaceutica, N.V., priority 1996, dated 2000).

Columns and labels:
[1] = Systemic and local tolerance of depot formulations (described in words); format: in vivo
[2] = Particle size distribution of the milled and sieved ester; format: physicochemical
Excerpt: # The ester was milled and sieved using appropriate nominal standard test sieves, yielding active ingredient having a particle size distribution as follows: […]

[3] = Pharmacokinetic investigations on ester depot formulations (described in words); format: in vivo; conditions: versus other C10-20 alkanoic acid esters
[4] = cited from earlier work
[5] = compared with risperidone; cited from earlier work
[6] = cited from earlier work; remark: listed apart in the source
[7] = compared with 9-hydroxy-risperidone; cited from earlier work
[8] = pamoate salt; cited from earlier work

## CCCCCCCCCCCCCCCC(=O)OC1CCCn2c1nc(C)c(CCN1CCC(c3noc4cc(F)ccc34)CC1)c2=O (stereo not shown) [9-hydroxyrisperidone palmitate ester]
[1]; suspensions of the palmitate ester in sesame oil
  difference between small or large prodrug particles: No significant difference between small or large prodrug particles
[1]; versus other C10-20 alkanoic acid esters
  tolerance point of view: superior ester
[2]; 10% by volume
  particle size, 10% of the particles (by volume): ≥ 15 μm
[2]; 50% by volume
  particle size, 50% of the particles (by volume): ≥ 5 μm
[2]; 90% by volume
  particle size, 90% of the particles (by volume): ≥ 0.5 μm
[3]
  pharmacokinetic point of view: superior ester

## Cc1nc2n(c(=O)c1CCN1CCC(c3noc4cc(F)ccc34)CC1)CCCC2O (stereo not shown) [9-hydroxyrisperidone]
[4]; compared with risperidone
  elimination half-life: longer elimination half-life
[5]
  pharmacological profile and potency: comparable with that of the parent drug risperidone

## Cc1nc2n(c(=O)c1CCN1CCC(c3noc4cc(F)ccc34)CC1)CCCC2 [Risperidone, 3-[2-[4-(6-fluoro-1,2-benzisoxazol-3-yl)-1-piperidinyl]ethyl]-6,7,8,9-tetrahydro-2-methyl-4H-pyridol[1,2-a]pyrimidin-4-one]
[4]; in vivo
  metabolism: metabolized to 9-hydroxyrisperidone
[6]; in vivo
  therapeutic index: relatively narrow therapeutic index
[6]; overdosage
  undesirable side effects on overdosage: most notably extra pyramidal syndrome (EPS) and to a lesser extent hypotension
[7]
  distribution to and elimination from the brain tissues: more rapidly than its metabolite 9-hydroxy-risperidone

## Cc1nc2n(c(=O)c1CCN1CCC(c3noc4cc(F)ccc34)CC1)CCCC2 [risperidone pamoate]
[4]; suspension, WO-94/25460
  initial plasma levels: relatively high initial plasma levels
  mean duration of action: inadequate mean duration of action
  release of the active ingredient: too rapid
[8]
  water solubility: poorly water-soluble
